Data reported in ChEMBL document CHEMBL4706653, “Ultra-short lipopeptides against gram-positive bacteria while alleviating antimicrobial resistance” (Eur J Med Chem, 2021).
Converted amounts (≈) assume the structure as drawn. Residues, ends and D or L forms follow the SMILES beside them. *: point of attachment. Stearoyl = CCCCCCCCCCCCCCCCCC(=O)*; Palmitoyl = CCCCCCCCCCCCCCCC(=O)*; Myristoyl = CCCCCCCCCCCCCC(=O)*; Lauroyl = CCCCCCCCCCCC(=O)*; Decanoyl = CCCCCCCCCC(=O)*; Octanoyl = CCCCCCCC(=O)*

Experiments:
Erythrocyte = test: Hemolytic activity against mouse erythrocytes measured after 1 hr; type: ADME, cell-based
Staphylococcus aureus [1] = test: Antimicrobial activity against methicillin-resistant Staphylococcus aureus 113 after 18 hrs by broth microdilution method; type: functional
[2] = test system: Staphylococcus epidermidis; test: Antimicrobial activity against Staphylococcus epidermidis ATCC 12228 after 18 hrs by broth microdilution method; type: functional
Staphylococcus aureus [3] = test: Antimicrobial activity against methicillin-resistant Staphylococcus aureus 75 after 18 hrs by broth microdilution method; type: functional
Staphylococcus aureus [4] = test: Antimicrobial activity against Staphylococcus aureus ATCC 29213 after 18 hrs by broth microdilution method; type: functional
Staphylococcus aureus [5] = test: Antimicrobial activity against Staphylococcus aureus ATCC 25923 after 18 hrs by broth microdilution method; type: functional
Bacillus subtilis = test: Antimicrobial activity against Bacillus subtilis ATCC 23857 after 18 hrs by broth microdilution method; type: functional
[6] = Therapeutic index, ratio of MHC for mouse RBC to geometric mean of peptide MIC for Staphylococcus epidermidis ATCC 12228; type: toxicity; details: pooled result: one value given for 6 cell lines, strains, targets or settings, read-out: TI

| SMILES | MHC10 (Erythrocyte) | MIC (Staphylococcus aureus [1]) | MIC [2] | MIC (Staphylococcus aureus [3]) | MIC (Staphylococcus aureus [4]) | MIC (Staphylococcus aureus [5]) | MIC (Bacillus subtilis) | selectivity ratio [6] |
| --- | --- | --- | --- | --- | --- | --- | --- | --- |
| CCCCCCCC(=O)N[C@@H](CCCNC(=N)N)C(=O)N[C@@H](CCCNC(=N)N)C(=O)N[C@@H](CCCNC(=N)N)C(N)=O (Octanoyl-Arg-Arg-Arg-NH2) | > 256 µM | > 128 µM | > 128 µM | > 128 µM | > 128 µM | > 128 µM | > 128 µM |  |
| CCCCCCCCCC(=O)N[C@@H](Cc1c[nH]c2ccccc12)C(=O)N[C@@H](CCCNC(=N)N)C(=O)N[C@@H](CCCNC(=N)N)C(N)=O (Decanoyl-Trp-Arg-Arg-NH2) | 256 µM | 16 µM (≈ 10.7 µg/mL) | 8 µM (≈ 5.36 µg/mL) | 16 µM (≈ 10.7 µg/mL) | 16 µM (≈ 10.7 µg/mL) | 8 µM (≈ 5.36 µg/mL) | 8 µM (≈ 5.36 µg/mL) | 21.3 |
| CCCCCCCCCC(=O)N[C@@H](CCCNC(=N)N)C(=O)N[C@@H](CCCNC(=N)N)C(=O)N[C@@H](Cc1c[nH]c2ccccc12)C(N)=O (Decanoyl-Arg-Arg-Trp-NH2) | > 256 µM | 8 µM (≈ 5.36 µg/mL) | 16 µM (≈ 10.7 µg/mL) | 16 µM (≈ 10.7 µg/mL) | 16 µM (≈ 10.7 µg/mL) | 32 µM (≈ 21.4 µg/mL) | 8 µM (≈ 5.36 µg/mL) | 32 |
| CCCCCCCC(=O)N[C@@H](CCCNC(=N)N)C(=O)N[C@@H](CCCNC(=N)N)C(=O)N[C@@H](Cc1c[nH]c2ccccc12)C(N)=O (Octanoyl-Arg-Arg-Trp-NH2) | > 256 µM | 128 µM (≈ 82.2 µg/mL) | 64 µM (≈ 41.1 µg/mL) | 64 µM (≈ 41.1 µg/mL) | 64 µM (≈ 41.1 µg/mL) | 64 µM (≈ 41.1 µg/mL) | 32 µM (≈ 20.5 µg/mL) | 7.38 |
| CCCCCCCC(=O)N[C@@H](CCCNC(=N)N)C(=O)N[C@@H](Cc1c[nH]c2ccccc12)C(=O)N[C@@H](Cc1c[nH]c2ccccc12)C(N)=O (Octanoyl-Arg-Trp-Trp-NH2) | > 256 µM | 32 µM (≈ 21.5 µg/mL) | 16 µM (≈ 10.7 µg/mL) | 8 µM (≈ 5.37 µg/mL) | 16 µM (≈ 10.7 µg/mL) | 16 µM (≈ 10.7 µg/mL) | 16 µM (≈ 10.7 µg/mL) | 29.5 |
| CCCCCCCC(=O)N[C@@H](CCCNC(=N)N)C(=O)N[C@@H](Cc1c[nH]c2ccccc12)C(=O)N[C@@H](CCCNC(=N)N)C(N)=O (Octanoyl-Arg-Trp-Arg-NH2) | > 256 µM | 128 µM (≈ 82.2 µg/mL) | 128 µM (≈ 82.2 µg/mL) | 128 µM (≈ 82.2 µg/mL) | 128 µM (≈ 82.2 µg/mL) | > 128 µM | 64 µM (≈ 41.1 µg/mL) | 3.69 |
| CCCCCCCCCCCCCCCCCC(=O)N[C@@H](CCCNC(=N)N)C(=O)N[C@@H](CCCNC(=N)N)C(=O)N[C@@H](Cc1c[nH]c2ccccc12)C(N)=O (Stearoyl-Arg-Arg-Trp-NH2) | 32 µM | 8 µM (≈ 6.26 µg/mL) | 4 µM (≈ 3.13 µg/mL) | 16 µM (≈ 12.5 µg/mL) | 8 µM (≈ 6.26 µg/mL) | 8 µM (≈ 6.26 µg/mL) | 8 µM (≈ 6.26 µg/mL) | 3.69 |
| CCCCCCCCCCCC(=O)N[C@@H](CCCNC(=N)N)C(=O)N[C@@H](Cc1c[nH]c2ccccc12)C(=O)N[C@@H](CCCNC(=N)N)C(N)=O (Lauroyl-Arg-Trp-Arg-NH2) | 64 µM | 4 µM (≈ 2.79 µg/mL) | 8 µM (≈ 5.58 µg/mL) | 4 µM (≈ 2.79 µg/mL) | 8 µM (≈ 5.58 µg/mL) | 16 µM (≈ 11.2 µg/mL) | 8 µM (≈ 5.58 µg/mL) | 8 |
| CCCCCCCCCCCCCC(=O)N[C@@H](CCCNC(=N)N)C(=O)N[C@@H](CCCNC(=N)N)C(=O)N[C@@H](CCCNC(=N)N)C(N)=O (Myristoyl-Arg-Arg-Arg-NH2) | 128 µM | 8 µM (≈ 5.57 µg/mL) | 8 µM (≈ 5.57 µg/mL) | 8 µM (≈ 5.57 µg/mL) | 64 µM (≈ 44.5 µg/mL) | 16 µM (≈ 11.1 µg/mL) | 8 µM (≈ 5.57 µg/mL) | 6.86 |
| CCCCCCCCCCCCCCCC(=O)N[C@@H](CCCNC(=N)N)C(=O)N[C@@H](CCCNC(=N)N)C(=O)N[C@@H](CCCNC(=N)N)C(N)=O (Palmitoyl-Arg-Arg-Arg-NH2) | 64 µM | 2 µM (≈ 1.45 µg/mL) | 8 µM (≈ 5.79 µg/mL) | 8 µM (≈ 5.79 µg/mL) | 32 µM (≈ 23.2 µg/mL) | 8 µM (≈ 5.79 µg/mL) | 8 µM (≈ 5.79 µg/mL) | 5.83 |
| CCCCCCCCCCCC(=O)N[C@@H](CCCNC(=N)N)C(=O)N[C@@H](Cc1c[nH]c2ccccc12)C(=O)N[C@@H](Cc1c[nH]c2ccccc12)C(N)=O (Lauroyl-Arg-Trp-Trp-NH2) | > 256 µM | 8 µM (≈ 5.82 µg/mL) | 64 µM (≈ 46.6 µg/mL) | 8 µM (≈ 5.82 µg/mL) | 64 µM (≈ 46.6 µg/mL) | 32 µM (≈ 23.3 µg/mL) | 64 µM (≈ 46.6 µg/mL) | 12.8 |
| CCCCCCCCCCCCCCCC(=O)N[C@@H](CCCNC(=N)N)C(=O)N[C@@H](CCCNC(=N)N)C(=O)N[C@@H](Cc1c[nH]c2ccccc12)C(N)=O (Palmitoyl-Arg-Arg-Trp-NH2) | 32 µM | 2 µM (≈ 1.51 µg/mL) | 8 µM (≈ 6.03 µg/mL) | 8 µM (≈ 6.03 µg/mL) | 8 µM (≈ 6.03 µg/mL) | 8 µM (≈ 6.03 µg/mL) | 4 µM (≈ 3.02 µg/mL) | 5.05 |
| CCCCCCCC(=O)N[C@@H](Cc1c[nH]c2ccccc12)C(=O)N[C@@H](CCCNC(=N)N)C(=O)N[C@@H](CCCNC(=N)N)C(N)=O (Octanoyl-Trp-Arg-Arg-NH2) | > 256 µM | 128 µM (≈ 82.2 µg/mL) | 32 µM (≈ 20.5 µg/mL) | 64 µM (≈ 41.1 µg/mL) | 128 µM (≈ 82.2 µg/mL) | 128 µM (≈ 82.2 µg/mL) | 64 µM (≈ 41.1 µg/mL) | 5.65 |
| CCCCCCCCCCCC(=O)N[C@@H](Cc1c[nH]c2ccccc12)C(=O)N[C@@H](CCCNC(=N)N)C(=O)N[C@@H](CCCNC(=N)N)C(N)=O (Lauroyl-Trp-Arg-Arg-NH2) | 64 µM | 4 µM (≈ 2.79 µg/mL) | 8 µM (≈ 5.58 µg/mL) | 8 µM (≈ 5.58 µg/mL) | 8 µM (≈ 5.58 µg/mL) | 8 µM (≈ 5.58 µg/mL) | 8 µM (≈ 5.58 µg/mL) | 8.73 |
| CCCCCCCCCCCCCCCC(=O)N[C@@H](CCCNC(=N)N)C(=O)N[C@@H](Cc1c[nH]c2ccccc12)C(=O)N[C@@H](Cc1c[nH]c2ccccc12)C(N)=O (Palmitoyl-Arg-Trp-Trp-NH2) | > 256 µM | 8 µM (≈ 6.27 µg/mL) | 16 µM (≈ 12.5 µg/mL) | 32 µM (≈ 25.1 µg/mL) | 32 µM (≈ 25.1 µg/mL) | 16 µM (≈ 12.5 µg/mL) | 64 µM (≈ 50.2 µg/mL) | 18.3 |
| CCCCCCCCCCCCCCCC(=O)N[C@@H](CCCNC(=N)N)C(=O)N[C@@H](Cc1c[nH]c2ccccc12)C(=O)N[C@@H](CCCNC(=N)N)C(N)=O (Palmitoyl-Arg-Trp-Arg-NH2) | 64 µM | 4 µM (≈ 3.02 µg/mL) | 8 µM (≈ 6.03 µg/mL) | 8 µM (≈ 6.03 µg/mL) | 16 µM (≈ 12.1 µg/mL) | 8 µM (≈ 6.03 µg/mL) | 8 µM (≈ 6.03 µg/mL) | 7.38 |
| CCCCCCCCCCCC(=O)N[C@@H](CCCNC(=N)N)C(=O)N[C@@H](CCCNC(=N)N)C(=O)N[C@@H](CCCNC(=N)N)C(N)=O (Lauroyl-Arg-Arg-Arg-NH2) | > 256 µM | 16 µM (≈ 10.7 µg/mL) | 16 µM (≈ 10.7 µg/mL) | 32 µM (≈ 21.4 µg/mL) | 16 µM (≈ 10.7 µg/mL) | 32 µM (≈ 21.4 µg/mL) | 8 µM (≈ 5.34 µg/mL) | 25.6 |
| CCCCCCCCCCCCCC(=O)N[C@@H](CCCNC(=N)N)C(=O)N[C@@H](Cc1c[nH]c2ccccc12)C(=O)N[C@@H](CCCNC(=N)N)C(N)=O (Myristoyl-Arg-Trp-Arg-NH2) | 64 µM | 4 µM (≈ 2.9 µg/mL) | 4 µM (≈ 2.9 µg/mL) | 4 µM (≈ 2.9 µg/mL) | 8 µM (≈ 5.81 µg/mL) | 8 µM (≈ 5.81 µg/mL) | 8 µM (≈ 5.81 µg/mL) | 10.7 |
| CN[C@H](CC(C)C)C(=O)N[C@H]1C(=O)N[C@@H](CC(N)=O)C(=O)N[C@H]2C(=O)N[C@H]3C(=O)N[C@H](C(=O)N[C@H](C(=O)O)c4cc(O)cc(O)c4-c4cc3ccc4O)[C@H](O)c3ccc(c(Cl)c3)Oc3cc2cc(c3O[C@@H]2O[C@H](CO)[C@@H](O)[C@H](O)[C@H]2O[C@H]2C[C@](C)(N)[C@H](O)[C@H](C)O2)Oc2ccc(cc2Cl)[C@H]1O [VANCOMYCIN] |  | < 1 µM | < 1 µM | < 1 µM | < 1 µM | < 1 µM | < 1 µM |  |
